Source: US10570168B2, “2′ and/or 5′ amino-acid ester phosphoramidate 3′-deoxy adenosine derivatives as anti- cancer compounds” (NuCana plc, priority 2014, dated 2020)

How the values were obtained:
[1] = system: CCRF-CEM (TdT positive CEM); assay: ATP (ViaLight plus) cytotoxicity assay; assay type: cell-based, Human; conditions: for IC50: Homo sapiens, CCRF-CEM
Description: (§1) Certain compounds of the invention were subjected to further studies to test the cytotoxic activity of certain compounds of the invention and also to measure their activity against 4 haematological cancer cell lines • TdT positive CEM (Human ALL) • TdT negative K562 (Human CML) • TdT negative H1-60 (Human ANLL) • RL (CRL-2261) non-HD lymphoma • The concentrations of the active metabolite dATP (Cordycepin triphosphate) in these cell lines was also measured. • The cytotoxic activity and the intracellular 3′-dATP concentrations were also studied in the presence of hENT1, Adenosine Kinase (AK) and Adenosine Deaminase pharmacological inhibitors in CEM and RL cancer cell lines. Said inhibitors that mimic known cancer resistance mechanisms. Methods Cell Culture
(§2) HL-60 (ATCC® CCL-240™), K562 (ATCC® CCL-243™), CCRF-CEM (ATCC® CRM-CCL-119™) and RL (ATCC® CRL-2261™) leukaemia cell lines, obtained from the American Type Culture Collection (ATCC), Middlesex. HL-60 and K562 cell lines are deoxynucleotidyl transferase-negative (TdT-ve), whereas CCRF-CEM cell line is TdT+ve.
(§3) HL-60, K562, CCRF-CEM and RL cell lines were cultured in RPMI-1640 medium (Sigma Aldrich, UK), which were supplemented with 10% Fetal Bovine Serum (FBS) (PAA Laboratories), 1% amphotericin B (5.5 ml) and 1% penicillin/streptomycin (5.5 ml) (PAA Laboratories) and grown in flasks at 37° C. incubator with 5% CO2.
(§4) The amount of ATP was used as a measurement of cell number and cell viability. ATP ViaLight™ plus assay kit (Lonza, USA: Product No. LT07-121) to detect ATP in cells treated in luminescence compatible 96 well plates (initial concentration of cells was 1×10^4 cells/well) with cordycepin and ProTides at concentrations of: 0, 0.1, 0.5, 1, 5 and 10 μM, followed by incubation for 72 hours at 37° C. incubator with 5% CO2. For inhibitor studies, 10 μM of NBTI or 1 μM EHNA or A-134974 was added and left for 5 minutes before adding the drugs (see section 5 for inhibitor details).
(§5) After incubation, 50 μl of cell lysis reagent was added to the 96 well plates to release the intracellular ATP, followed by 100 μl of ATP monitoring reagent (AMR). The luminescent values of each well were determined using FLUOstar OPTIMA microplate reader (BMG Labtech) which convert ATP into light by using luciferase enzyme. Therefore, the amount of luminescence produced was directly proportional to the amount of ATP.
Cell lines were treated in the same way as described above but before treatment with drugs, a number of inhibitors were added: • 1) Nitrobenzylthioinosine (NBTI) (Sigma-Aldrich, St. Louis, Mo., product # N2255) blocks nucleoside transporters • 2) EHNA hydrochloride (Sigma-Aldrich, St. Louis, Mo., product # E114) blocks adenosine deaminase • 3) Adenosine kinase inhibitor A-134974 dihydrochloride hydrate (Sigma-Aldrich, St. Louis, Mo., product # A2846): blocks adenosine kinase
(§6) The dose-response curves of cytotoxicity of the drugs was determined using non-linear regression analysis of percentage cell viability versus concentration and EC50 values were obtained. The intracellular assay was conducted in five replicates for each condition. Intracellular assay was determined using paired t test (two-tailed) analysis of 3′ATP/ATP concentration and p-values were obtained. For all the analysis, Prism Software program (GraphPad Software) was used and Microsoft Powerpoint® 2013 was used to plot the results.

HL-60 (TdT negative) = assay: ATP (ViaLight plus) cytotoxicity assay; assay type: cell-based, Human; conditions: for (FD) fold difference compared to Cordycepin = Cordycepin IC50/ProTide IC50: HL-60; for IC50: Homo sapiens, HL-60, 72 h
Description: as §1, §2, §3, §4, §5, §6

K562 (TdT negative) = assay: ATP (ViaLight plus) cytotoxicity assay; assay type: cell-based, Human; conditions: for IC50: Homo sapiens, K562, 72 h
Description: as §1, §2, §3, §4, §5, §6

RPMI-8226 = assay: Solid tumour and haematological malignancy assay (CellTiterGlo); assay type: cell-based; conditions: Homo sapiens, RPMI-8226, 72 h; for IC50: read-out: IC50 (absolute IC50); for Emax: read-out: MI %
Method in brief: (§7)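 Cells were treated in duplicate with a 9-point, 3.16-fold dilution series for about 72 h under standard growth conditions. Final concentrations ran from […] to 19.9 nM, with 0.5% DMSO. Viability was read by CellTiter-Glo luminescence.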

BxPC-3 = assay: as above; assay type: cell-based; conditions: Homo sapiens, BXPC-3, 72 h, read-out: IC50 (absolute IC50)
Method in brief: as §7

RL = assay: as above; assay type: cell-based; conditions: Homo sapiens, 72 h; for IC50: read-out: IC50 (absolute IC50); for Emax: read-out: MI %
Method in brief: as §7

Z138 = assay: as above; assay type: cell-based; conditions: Homo sapiens, Z-138, 72 h; for IC50: read-out: IC50 (absolute IC50); for Emax: read-out: MI %
Method in brief: as §7

NCI-H929 = assay: as above; assay type: cell-based; conditions: Homo sapiens, NCI-H929, 72 h; for IC50: read-out: IC50 (absolute IC50); for Emax: read-out: MI %
Method in brief: as §7

MV4-11 = assay: as above; assay type: cell-based; conditions: Homo sapiens, MV4-11, 72 h; for IC50: read-out: IC50 (absolute IC50); for Emax: read-out: MI %
Method in brief: as §7

[2] = CEM, with AK (adenosine kinase inhibitor A-134974, 1 μM)
[3] = CEM, with EHNA 1 μM (adenosine deaminase blocker)
[4] = CEM, with NBTI 10 μM (nucleoside transporter blocker)

| SMILES | (FD) fold difference compared to control ([1]; CEM, IC50 with AK inhibitor) | (FD) fold difference compared to control ([1]; CEM, IC50 with EHNA) | (FD) fold difference compared to control ([1]; CEM, IC50 with NBTI) | IC50 ([1]; 72 h, CEM (TdT+ve), 72 hours) [nM] | IC50 ([1]; CEM, Control (no inhibitor)) [nM] | IC50 [1, 2] [nM] | IC50 [1, 3] [nM] | IC50 [1, 4] [nM] | (FD) fold difference compared to Cordycepin = Cordycepin IC50/ProTide IC50 (HL-60 (TdT negative)) | IC50 (HL-60 (TdT negative)) [µM] | IC50 (K562 (TdT negative)) [nM] | IC50 (RPMI-8226) [µM] | IC50 (BxPC-3) [µM] | IC50 (RL) [µM] | IC50 (Z138) [µM] | Emax (Z138) [%] | IC50 (NCI-H929) [µM] | Emax (NCI-H929) [%] | IC50 (MV4-11) [µM] | Emax (MV4-11) [%] | also measured |
| --- | --- | --- | --- | --- | --- | --- | --- | --- | --- | --- | --- | --- | --- | --- | --- | --- | --- | --- | --- | --- | --- |
| C[C@H](NP(=O)(OC[C@@H]1C[C@@H](O)[C@H](n2cnc3c(N)ncnc32)O1)Oc1cccc2ccccc12)C(=O)OCc1ccccc1 (stereo partly drawn) [B, (2S)-benzyl 2-(((((2S,4R,5R)-5-(6-amino-9H-purin-9-yl)-4-hydroxytetrahydrofuran-2-yl)methoxy)(naphthalen-1-yloxy)phosphoryl)amino)propanoate] | (1) | (1) | (1) | 130 | 900 | 1300 | 1300 | 1400 | (4) | 2.6 | 210 | 5 to 15 | 5 to 15 | 0.1 to 5 | 5 to 15 | 100 | 0.1 to 5 | 99 | 0.1 to 5 | 99 | – |
| Nc1ncnc2c1ncn2[C@@H]1O[C@H](COP(=O)(NCC(=O)OCc2ccccc2)Oc2ccccc2)C[C@H]1O (stereo partly drawn) [C, Benzyl 2-(((((2S,4R,5R)-5-(6-amino-9H-purin-9-yl)-4-hydroxytetrahydrofuran-2-yl)methoxy)(phenoxy)phosphoryl)amino)acetate] | – | – | – | – | – | – | – | – | – | – | – | 15 to 100 | 15 to 100 | 5 to 15 | 5 to 15 | 100 | 5 to 15 | 104 | 5 to 15 | 106 | Emax (RPMI-8226): 103%; Emax (RL): 100% |
| C[C@H](NP(=O)(OC[C@@H]1CC(O)[C@H](n2cnc3c(N)ncnc32)O1)Oc1ccccc1)C(=O)OCc1ccccc1 (stereo partly drawn) [Compound A, 3′-deoxyadenosine-5′-O-[phenyl(benzyloxy-L-alaninyl)] phosphate] | (3) | (2.2) | (1) | 870 | 1400 | 3600 | 3100 | 2000 | (3) | 4.6 | 2400 | 5 to 15 | 15 to 100 | 0.1 to 5 | 15 to 100 | 95 | 5 to 15 | 100 | 0.1 to 5 | 99 | (FD) fold difference compared to Cordycepin = Cordycepin IC50/ProTide IC50 ([1]; CEM (TdT+ve)): (22); (FD) fold difference compared to Cordycepin = Cordycepin IC50/ProTide IC50 (K562 (TdT negative); K562): (5); Emax (RPMI-8226): 96%; Emax (RL): 93% |
